From US20050208549A1, “Testing endosymbiont cellular organelles and compounds identifiable therewith” (priority 2000, published 2005)

Columns and labels:
Fibroblasts [1] = experiment: Lactate-pyruvate ratio in fibroblasts cultured with ddC; format: cell-based
Protocol: Fibroblasts were cultured in the presence of the anti-retroviral drug ddC. (30 μM) for four weeks. After that period, the cell culture continued in the presence, but also in the absence, of ddC for another six weeks. During this period of culture, part of the cells were harvested and analyzed for the ratio of lactate-pyruvate using standard methods known by persons skilled in the art.

Fibroblasts [2] = experiment: One-tube duplex NASBA ratio of mitochondrial RNA and chromosomal DNA in fibroblasts cultured with ddC; format: cell-based
Protocol: In this example, the NASBA nucleic acid amplification reactions for DNA target sequences were performed in a 20 μl reaction volume and contained: 40 mM Tris-pH 8.5, 70 mM KCl, 12 mM MgCl2, 5 mM dithiotreitol, 1 mM dNTPs (each), 2 mM rNTPs (each), 0.2 μM primer (each), 0.05 μM molecular beacon, 1.5 units restriction enzyme Msp I, 375 mM sorbitol, 0.105 μg/μl bovine serum albumin, 6.4 units AMV RT, 32 units T7 RNA polymerase, 0.08 units RNAse H and input nucleic acid. The complete mixture, except the enzymes sorbitol and bovine serum albumin, was, prior to adding the enzyme mixture, incubated at 37° C. for 25 minutes and subsequently heated to 95° C. for two minutes in order to denature the DNA and to allow the primers to anneal. After cooling the mixture to 41° C., the enzyme mixture was added. The amplification took place at 41° C. for 90 minutes in a fluorimeter (CytoFluor 2000) and the fluorescent signal was measured every minute (using the filter set 530/25 nm and 485/30 nm). To achieve quantification, a dilution series of target sequence for a particular primer set was amplified and the time points at which the reactions became positive (the time to positivity, TTP) were plotted against the input amounts of nucleic acid. This way a calibration curve was created that could be used to read TTP values of reactions with unknown amounts of input and deduce the input amount. […] After five days, the cells were harvested and analyzed for an amount of chromosomal DNA (primers SnrpD p1 and SnrpD2 p2 and probe SnrpD mb) with the described NASBA protocol in the chapter “Used ingredients and general methodology” and compared with the NASBA protocol as described in this example. […]
Different ratios of mitochondrial RNA target and chromosomal DNA target in a plasmid were analyzed in this example: 2×10^3 U1a DNA/5×10^4 Mt RNA, 2×10^3 U1a DNA/2.5×10^5 Mt RNA, 2×10^3 U1a DNA/5×10^5 Mt RNA, 2×10^3 U1a DNA/2.5×10^6 Mt RNA, 2×10^3 U1a DNA/5×10^6 Mt RNA, 2×10^3 U1a DNA/10^7 Mt RNA, 2×10^3 U1a DNA/2.5×10^7 Mt RNA molecules were included. […]

In the case of `Nc1ccn([C@H]2CC[C@@H](CO)O2)c(=O)n1` [ddC], the “culture time after which a significant increase of lactate pyruvate ratio can be observed” value (Fibroblasts [1]; ddC 30 μM) is reported as “four”, the “lactate-pyruvate ratio in continued culture in the absence of ddC” value (Fibroblasts [1]; ddC 30 μM for four weeks, then without ddC) is reported as “drops to normal levels” and the “lactate pyruvate ratio in the presence of ddC” value (Fibroblasts [1]; ddC 30 μM, FIG. 17) is reported as “increases”. The “lactate-pyruvate ratio during continued culture in the presence of ddC” value (Fibroblasts [1]; ddC 30 μM, after week four, another six weeks) was “remains high”, the “amount of mitochondrial RNA in continued culture in the absence of ddC” value (Fibroblasts [2]; ddC 30 μM eight weeks, then without ddC (week 10, 12, 14 and 16)) was “clear rebound” and the “amount of mitochondrial RNA in continued culture in the presence of ddC” value (Fibroblasts [2]; ddC 30 μM, after week eight, another eight weeks) was “remains very low”. The “mitochondrial RNA of fibroblasts in the presence of ddC” value (Fibroblasts [2]; ddC 30 μM, eight weeks, FIG. 23) was “lose their mitochondrial RNA”.
